Assay results as given in the NIST ThermoML archive (doi:10.1021/je400529k).

Key:
[1] = xn = mol fraction of the nth substance listed; details: 101 kPa, Liquid; for viscosity: Capillary tube (Ostwald / Ubbelohde) method; for mass density: Vibrating tube method
[2] = refractive index (Na D-line) (dimensionless); xn = mol fraction of the nth substance listed; details: 101 kPa, Liquid, Standard Abbe refractometry

C1C[C@@H]2[C@H]3CC[C@H](C3)[C@@H]2C1 [exo-tetrahydrodicyclopentadiene] + CC1CCCCC1
Details	mass density, [1] [kg/m3]	refractive index, [2]	viscosity, [1] [mPa·s]
293.15 K, x1 = 0.1	788.79	1.4298	0.842
293.15 K, x1 = 0.2009	807.71	1.4376	0.959
293.15 K, x1 = 0.301	825.81	1.4447	1.102
293.15 K, x1 = 0.3999	843.02	1.4515	1.267
293.15 K, x1 = 0.4999	859.94	1.4586	1.454
293.15 K, x1 = 0.5992	876.09	1.4646	1.67
293.15 K, x1 = 0.7004	891.98	1.4709	1.925
293.15 K, x1 = 0.7995	906.95	1.4768	2.22
293.15 K, x1 = 0.9011	921.82	1.482	2.582
293.15 K, x1 = 1	935.72	1.4874	2.992
298.15 K, x1 = 0.1	784.53	–	0.785
298.15 K, x1 = 0.2009	803.5	–	0.892
298.15 K, x1 = 0.301	821.64	–	1.023
298.15 K, x1 = 0.3999	838.89	–	1.171
298.15 K, x1 = 0.4999	855.86	–	1.34
298.15 K, x1 = 0.5992	872.05	–	1.534
298.15 K, x1 = 0.7004	887.96	–	1.762
298.15 K, x1 = 0.7995	902.99	–	2.026
298.15 K, x1 = 0.9011	917.88	–	2.347
298.15 K, x1 = 1	931.84	–	2.71
303.15 K, x1 = 0.1	780.25	1.4253	0.735
303.15 K, x1 = 0.2009	799.26	1.4324	0.833
303.15 K, x1 = 0.301	817.46	1.4402	0.952
303.15 K, x1 = 0.3999	834.75	1.4472	1.087
303.15 K, x1 = 0.4999	851.75	1.4539	1.239
303.15 K, x1 = 0.5992	867.99	1.4599	1.416
303.15 K, x1 = 0.7004	883.94	1.4662	1.621
303.15 K, x1 = 0.7995	899.01	1.4722	1.857
303.15 K, x1 = 0.9011	913.94	1.478	2.146
303.15 K, x1 = 1	927.94	1.4831	2.467
308.15 K, x1 = 0.1	775.95	–	0.692
308.15 K, x1 = 0.2009	795.01	–	0.781
308.15 K, x1 = 0.301	813.26	–	0.89
308.15 K, x1 = 0.3999	830.6	–	1.013
308.15 K, x1 = 0.4999	847.64	–	1.151
308.15 K, x1 = 0.5992	863.93	–	1.312
308.15 K, x1 = 0.7004	879.91	–	1.497
308.15 K, x1 = 0.7995	895.01	–	1.709
308.15 K, x1 = 0.9011	910	–	1.967
308.15 K, x1 = 1	924.02	–	2.255
313.15 K, x1 = 0.1	771.64	1.4198	0.652
313.15 K, x1 = 0.2009	790.75	1.4276	0.733
313.15 K, x1 = 0.301	809.05	1.4351	0.834
313.15 K, x1 = 0.3999	826.43	1.4421	0.947
313.15 K, x1 = 0.4999	843.53	1.449	1.074
313.15 K, x1 = 0.5992	859.84	1.4549	1.218
313.15 K, x1 = 0.7004	875.88	1.4617	1.388
313.15 K, x1 = 0.7995	891.03	1.4672	1.579
313.15 K, x1 = 0.9011	906.04	1.4732	1.81
313.15 K, x1 = 1	920.11	1.4786	2.069
318.15 K, x1 = 0.1	767.31	–	0.616
318.15 K, x1 = 0.2009	786.48	–	0.691
318.15 K, x1 = 0.301	804.83	–	0.783
318.15 K, x1 = 0.3999	822.26	–	0.887
318.15 K, x1 = 0.4999	839.4	–	1.003
318.15 K, x1 = 0.5992	855.75	–	1.135
318.15 K, x1 = 0.7004	871.84	–	1.29
318.15 K, x1 = 0.7995	887.03	–	1.463
318.15 K, x1 = 0.9011	902.08	–	1.672
318.15 K, x1 = 1	916.18	–	1.907
